# Key:
# Format in all cases: in vivo
# monochoria (Mo) [1] = assay: Test Example 1: herbicidal effects by flooded paddy field treatment; set-up: herbicidal effects, Mo (monochoria):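 0-5 growth inhibition grade; 5 = over 90%; 4 = 70-90%; 3 = 50-70%; 2 = 30-50%; 1 = 10-30%; 0 = under 10%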; settings: for Herbicidal effect index, Mo: dose 100 gai/10a, examined on 21st day after treatment, index 0-5 per Table 44; for herbicidal effects, Mo (monochoria): dose 100 g active ingredient per 10 ares, examined on the 21st day after treatment, standards of Table 44;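 on Herbicidal effect index, Mo: 0-5 growth inhibition grade; 5 = over 90%; 4 = 70-90%; 3 = 50-70%; 2 = 30-50%; 1 = 10-30%; 0 = under 10%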
# How it was run: (§1)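 Herbicidal effect is a graded score assigned 21 days after treatment. Application was one day after sowing into flooded (3 cm) puddled paddy soil, with diluted wettable powder dropped onto the water at 100 g active ingredient per 10 ares. Plants were kept in a greenhouse.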
# barnyard grass (Eo) [2] = assay: as above; set-up: herbicidal effects, Eo (barnyard grass):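 0-5 growth inhibition grade; 5 = over 90%; 4 = 70-90%; 3 = 50-70%; 2 = 30-50%; 1 = 10-30%; 0 = under 10%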; settings: for Herbicidal effect index, Eo: dose 100 gai/10a, examined on 21st day after treatment, index 0-5 per Table 44; for herbicidal effects, Eo (barnyard grass): dose 100 g active ingredient per 10 ares, examined on the 21st day after treatment, standards of Table 44
# How it was run: as §1
# green foxtail (Se) = assay: Test Example 2: herbicidal effects by upland soil treatment; settings: dose 100 g active ingredient per 10 ares, examined on the 21st day after treatment, standards of Table 44;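 further: 0-5 growth inhibition grade; 5 = over 90%; 4 = 70-90%; 3 = 50-70%; 2 = 30-50%; 1 = 10-30%; 0 = under 10%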
# Description: In a 80 cm^2 plastic pot, upland soil was filled, and seeds of barnyard grass (Ec) and green foxtail (Se) were sown and covered with soil. A wettable powder prepared in accordance with Formulation Example 1 was diluted with water and uniformly applied to the soil surface by means of a small size spray at a rate of 100 l per 10 ares, so that the dose of the active ingredient would be 100 g per 10 ares. Thereafter, cultivation was carried out in a green house, and on the 21st day after the treatment, the herbicidal effects were examined in accordance with the standards as identified in Table 44.
# barnyard grass (Ec) [3] = assay: as above; set-up: scale not given here; settings: dose 100 g active ingredient per 10 ares, examined on the 21st day after treatment; for herbicidal effects, Ec (barnyard grass): standards of Table 44
# How it was run: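 Pre-emergence test: barnyard grass and green foxtail sown in upland soil, then soil surface sprayed with wettable-powder formulation at 100 g active ingredient per 10 ares (100 l per 10 ares). Grown in greenhouse; herbicidal effect scored on a rating scale 21 days after treatment.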
# barnyard grass (Ec) [4] = assay: Test Example 3: herbicidal effects by foliage treatment in upland field; set-up: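 0-5 growth inhibition grade; 5 = over 90%; 4 = 70-90%; 3 = 50-70%; 2 = 30-50%; 1 = 10-30%; 0 = under 10%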; settings: dose 100 g active ingredient per 10 ares, examined on the 14th day after treatment
# How it was run: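 Barnyard grass and green foxtail were grown in upland soil for 2 weeks in a greenhouse. A water-diluted wettable powder was sprayed over the foliage at 100 l per 10 ares, giving 100 g active ingredient per 10 ares. Herbicidal effect was scored on day 14 after treatment.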
# monochoria (Mo) [5] = assay: Test Example 4: selectivity for a crop plant by flooded paddy field treatment; set-up: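 0-5 growth inhibition grade; 5 = over 90%; 4 = 70-90%; 3 = 50-70%; 2 = 30-50%; 1 = 10-30%; 0 = under 10%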; settings: monochoria, dose 25 gai/10a, 21st day after treatment, index per Table 44
# How it was run: (§2)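 Scores reflect visual herbicidal effect, graded on a standard scale 21 days after water-surface treatment. The product, a wettable powder diluted with water, went on dropwise at 25 g a.i. per 10 ares one day after flooding to 3 cm. Weeds grew from sown seed and rice was transplanted at second-leaf stage.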
# rice (Or) = assay: as above; set-up: scale not given here; settings: rice transplanted at second leaf stage, dose 25 gai/10a, 21st day after treatment, index per Table 44
# How it was run: as §2
# barnyard grass (Eo) [6] = assay: as above; set-up: scale not given here; settings: barnyard grass, dose 25 gai/10a, 21st day after treatment, index per Table 44
# How it was run: as §2
# 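Wherever Herbicidal effect index, Eo is given: 0-5 growth inhibition grade; 5 = over 90%; 4 = 70-90%; 3 = 50-70%; 2 = 30-50%; 1 = 10-30%; 0 = under 10%.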
SMILES,"Herbicidal effect index, Mo (monochoria (Mo) [1])","Herbicidal effect index, Eo (barnyard grass (Eo) [2])","herbicidal effects, Se (green foxtail) (green foxtail (Se))","herbicidal effects, Ec (barnyard grass) (barnyard grass (Ec) [3])","herbicidal effects, Mo (monochoria) (monochoria (Mo) [1])","herbicidal effects, Eo (barnyard grass) (barnyard grass (Eo) [2])","Ec (herbicidal effects, index) (barnyard grass (Ec) [4])",Mo (herbicidal effect index) (monochoria (Mo) [5]),Or (herbicidal effect index on crop) (rice (Or)),Eo (herbicidal effect index) (barnyard grass (Eo) [6]),"Ec (herbicidal effects, index) (barnyard grass (Ec) [3])"
CC(Oc1ccccc1)C(=O)N(C)C(c1cncnc1C(F)(F)F)C(C)C (mixture of isomers) [Compound 1-115],5,5,5,5,,,,,,,
COC(C(=O)N(C)C(c1cncnc1C(F)(F)F)C(C)C)c1ccc(Cl)cc1 (mixture of isomers) [Compound 1-155],,,4,4,5,5,,,,,
CCN(C(=O)Cc1cccc(F)c1)C(c1cncnc1C(F)(F)F)C(C)C (racemic) [1-173],,,5,5,5,5,,,,,
CCN(C(=O)Cc1ccc(C(F)(F)F)cc1)C(c1cncnc1C(F)(F)F)C(C)C (racemic) [1-174],,,5,5,5,5,,,,,
CC(C)C(c1cncnc1C(F)(F)F)N(C)C(=O)Oc1ccc(F)cc1 (racemic) [1-177],,,4,4,5,5,,,,,
CN(C(=O)Cc1ccc(Cl)cc1)C(c1ccccc1)c1cncnc1C(F)(F)F (racemic) [1-187],,,5,5,5,5,,,,,
CN(C(=O)Cc1ccc(F)cc1)C(c1ccc(Cl)cc1)c1cncnc1C(F)(F)F (racemic) [1-222],,,5,5,5,5,,,,,
CC(C)C(c1cncnc1C(F)(F)F)N(C)C(=O)Cc1ccc(Cl)s1 (racemic) [2-25],,,,,5,5,5,5,1,5,5
Cc1ccc(CC(=O)N(C)C(c2cncnc2C(F)(F)F)C(C)C)s1 (racemic) [2-50],,,,,5,5,4,5,1,5,5
CC(C)c1ncncc1C(C(C)C)N(C)C(=O)Cc1ccc(Cl)s1 (racemic) [2-71],,,,,5,5,5,5,1,5,5
C#CCN(C(=O)Cc1ccc(Cl)s1)C(c1cncnc1C(F)(F)F)C(C)C (racemic) [2-74],,,,,5,5,4,5,1,5,5
CCc1ncncc1C(C(C)C)N(C)C(=O)Cc1ccc(Cl)s1 (racemic) [2-75],,,,,5,5,5,5,1,5,5
CCc1ncncc1C(C(C)C)N(C)S(=O)(=O)c1ccccc1 (racemic) [4-2],,,,,5,5,5,5,1,5,5
COc1ccc(SC(=O)N(C)C(c2cncnc2C(F)(F)F)C(C)C)cc1 (racemic) [Compound 1-11],,,5,5,,,,,,,
CCC(c1cncnc1C(F)(F)F)N(C)C(=O)Cc1ccccc1 (racemic) [Compound 1-32],5,5,5,5,,,,,,,
CN(C(=O)Cc1ccc(F)cc1)C(c1cncnc1C(F)(F)F)C1CC1 (racemic) [Compound 1-35],5,5,5,5,,,,,,,
CC(C)C(c1cncnc1)N(C)C(=O)Cc1ccc(Cl)cc1 (racemic) [Compound 1-90],5,5,5,5,,,,,,,
CC(C)C(c1cncnc1C1CC1)N(C)C(=O)Cc1ccc(F)cc1 (racemic) [Compound 1-101],5,5,5,5,,,,,,,
Cc1ccc(CC(=O)N(C)C(c2cncnc2C2CC2)C(C)C)cc1 (racemic) [Compound 1-102],5,5,5,5,,,,,,,
CCCC(c1cncnc1C(F)(F)F)N(C)C(=O)Cc1ccc(Cl)cc1 (racemic) [Compound 1-114],5,5,5,5,,,,,,,
CC(C)c1ncncc1C(C(C)C)N(C)C(=O)Cc1ccccc1 (racemic) [Compound 1-128],,,5,5,4,5,,,,,
CN(C(=O)Cc1ccc(F)cc1)C(c1cncnc1C(F)(F)F)C1CCCC1 (racemic) [Compound 1-138],,,5,5,5,5,,,,,
CC(C)C(c1cncnc1C(F)(F)F)N(C)C(=O)Cc1cccc(F)c1F (racemic) [Compound 1-148],,,5,5,5,5,,,,,
CSc1ncncc1C(C(C)C)N(C)C(=O)Cc1ccc(Cl)cc1 (racemic) [Compound 1-151],,,5,5,5,5,,,,,
Cc1ncncc1C(N(C)C(=O)Cc1ccccc1)C(C)(C)C (racemic) [Compound 1-159],,,5,5,5,5,,,,,
Cc1ncncc1C(N(C)C(=O)Cc1ccc(F)cc1)C(C)(C)C (racemic) [Compound 1-160],,,5,5,5,5,,,,,
CC(C)C(c1cncnc1C(F)F)N(C)C(=O)Cc1ccccc1 (racemic) [Compound 1-163],,,5,5,5,5,,,,,
CC(C)C(c1cncnc1C(F)F)N(C)C(=O)Cc1ccc(Cl)cc1 (racemic) [Compound 1-165],,,5,5,5,5,,,,,
"CCOC(=O)c1ncncc1C(C(C)C)N(C)C(=O)C(C)c1ccc(Cl)cc1 (single isomer, unassigned) [1-594]",,,,,5,5,5,5,1,5,5

# Source: US6806230B1, “Pyrimidine derivatives and herbicides containing them” (Kumiai Chemical Industry Co., Ltd., priority 1999, dated 2004)
